According to patent publication US6006753A, “Use of GLP-1 or analogs to abolish catabolic changes after surgery” (Eli Lilly and Company, priority 1997, dated 1999):

Assays:
[1] = Blood glucose in NIDDM patients infused for three hours at each meal during the day (Example 3); assay type: in vivo, human; conditions: five NIDDM patients
Text: During the day, GLP-1 (7-36) amide was infused into five NIDDM patients for three hours during breakfast, lunch, and dinner.

[2] = Blood glucose in NIDDM patients continuously infused for ten hours during the night (Example 2); assay type: in vivo, human; conditions: five NIDDM patients
Description: GLP-1 (7-36) amide was administered by a subcutaneous infusion at a dose rate of 1.2 pmol/kg/hr, for ten hours during the night, to five patients having non-insulin dependent diabetes (NIDDM). […] The rate of insulin infusion was adjusted every two hours to achieve optimum control, and to avoid hypoglycemia.

[3] = overnight glucose infusion 5 mg/kg/min before elective abdominal surgery (Ljungqvist 1994); cited from earlier work
[4] = Hormone levels (RIA) in patients undergoing hipartroplasty with hyperinsulinemic, normoglycemic clamp before and during surgery; assay type: in vivo, human; design: Glucagon / Cortisol: unit not given here
Description: (§1) After one hour at steady state conditions, all patients underwent a standardized surgical treatment (hipartroplasty). […] The hyperinsulinemic, normoglycemic clamp was then maintained during surgery and continued for a further 3-4 hours after surgery. The data will be presented according to the following nomenclature:
(§2) The control group received no basal or preop clamp on the day of surgery.
Blood samples were collected from a heated hand vein repeatedly during the basal, preop, early op, late op and postop periods. Blood glucose was measured immediately upon collection using the glucose oxidase method (Yellow Springs Instruments, Yellow Springs, Ohio) [Hugget, A. S., et al., Lancet 2:368-70 (1957)]. […] Methods of hormone radioimmunoassay, Academic Press, New York and London (1979) pp. 643-56]; and glucagon (Euro-Diagnostica AB, Malm6, Sweden) [Faloona, G. R., et al., Glucagpn radioimmunoassay technique. 5 Vol. 1: Academic Press, New York (1974)].
(§3) All values are individual values, or mean+SEM (standard error of the mean). Statistical significance is accepted at p<0.05 using Wilcoxon's signed rank test and the Mann-Whitney U-test for paired and unpaired data respectively.

[5] = Glucose infusion rate (GIR) in hyperinsulinemic, normoglycemic clamp, preop vs postop, elective surgery patients; assay type: in vivo, human
Description: as §1, §2, §3

[6] = Indirect calorimetry: substrate oxidation rates and energy expenditure during and after surgery; assay type: in vivo, human
Description: Indirect calorimetry (Deltatrac® Dansjoo, Sweden) [Frayn, K. N. J. Appl. Physiol. 55(2):628-34 (1983); Takala, J., et al., Crit. Care Med. 17(10): 1041-47 (1989)] was performed for 30 minutes during the basal phase, twice during surgery (early op and late op), and during the last 30 minutes of the preop and postop clamps. Timed sampling of urine for analysis of urinary urea excretion was performed. After correction for changes in urea pool size [Tappy, L, et al., Diabetes 37:1212-16 (1988)], non-protein energy expenditure (EE), respiratory quotients (RQ) and substrate oxidation rates were calculated.

[7] = Hour 7:00, GLP-1 (7-36) amide infused three hours from start of each meal, insulin sc injection just before each meal
[8] = Hour 21:00, continuous infusion for ten hours during the night (GLP-1 (7-36) amide sc 1.2 pmol/kg/hr; insulin rate adjusted every two hours)
[9] = basal, 30 min before start of insulin infusion, insulin group n=7, mean ± SEM
[10] = early op, insulin 0.8 mU/kg/min iv, n=7
[11] = late op, insulin 0.8 mU/kg/min iv, n=7
[12] = postop clamp, insulin 0.8 mU/kg/min iv, n=7
[13] = preop clamp, insulin 0.8 mU/kg/min iv, n=7
[14] = insulin group vs control, p<0.05

CC[C@H](C)[C@H](NC(=O)[C@H](Cc1ccccc1)NC(=O)[C@H](CCC(=O)O)NC(=O)[C@H](CCCCN)NC(=O)[C@H](C)NC(=O)[C@H](C)NC(=O)[C@H](CCC(N)=O)NC(=O)CNC(=O)[C@H](CCC(=O)O)NC(=O)[C@H](CC(C)C)NC(=O)[C@H](Cc1ccc(O)cc1)NC(=O)[C@H](CO)NC(=O)[C@H](CO)NC(=O)[C@@H](NC(=O)[C@H](CC(=O)O)NC(=O)[C@H](CO)NC(=O)[C@@H](NC(=O)[C@H](Cc1ccccc1)NC(=O)[C@@H](NC(=O)CNC(=O)[C@H](CCC(=O)O)NC(=O)[C@H](C)NC(=O)[C@@H](N)Cc1c[nH]cn1)[C@@H](C)O)[C@@H](C)O)C(C)C)C(=O)N[C@@H](C)C(=O)N[C@@H](Cc1c[nH]c2ccccc12)C(=O)N[C@@H](CC(C)C)C(=O)N[C@H](C(=O)N[C@@H](CCCCN)C(=O)NCC(=O)N[C@@H](CCCNC(=N)N)C(N)=O)C(C)C [GLP-1 (7-36) amide, GLP-1(7-36) amide]
Average Blood Glucose [1, 7]: 5.4 mM | Average Blood Glucose ([1]; Hour 8:00, meal-time dosing): 4.9 mM | Average Blood Glucose ([1]; Hour 9:00, meal-time dosing): 5.7 mM | Average Blood Glucose ([1]; Hour 10:00, meal-time dosing): 5.8 mM | Average Blood Glucose ([1]; Hour 11:00, meal-time dosing): 8.1 mM | Average Blood Glucose ([1]; Hour 12:00, meal-time dosing): 9.4 mM | Average Blood Glucose ([1]; Hour 13:00, meal-time dosing): 7.2 mM | Average Blood Glucose ([1]; Hour 14:00, meal-time dosing): 5.3 mM | Average Blood Glucose ([1]; Hour 15:00, meal-time dosing): 7.2 mM | Average Blood Glucose ([1]; Hour 16:00, meal-time dosing): 10.4 mM | Average Blood Glucose ([1]; Hour 17:00, meal-time dosing): 9.2 mM | Average Blood Glucose ([1]; Hour 18:00, meal-time dosing): 5.7 mM | Average Blood Glucose ([1]; Hour 19:00, meal-time dosing): 6.6 mM | Average Blood Glucose ([1]; Hour 20:00, meal-time dosing): 8.3 mM | Average Blood Glucose ([1]; Hour 21:00, meal-time dosing): 9.3 mM | Blood glucose level immediately after terminating each infusion [1]: increased significantly | Post-prandial glucose excursions observed with insulin injection ([1]; while GLP-1 was infused): eliminated | Average Blood Glucose ([2]; Hour 0:00, night infusion): 4.4 mM | Average Blood Glucose ([2]; Hour 1:00, night infusion): 4.4 mM | Average Blood Glucose ([2]; Hour 2:00, night infusion): 4.8 mM | Average Blood Glucose ([2]; Hour 3:00, night infusion): 5.2 mM | Average Blood Glucose ([2]; Hour 4:00, night infusion): 5.4 mM | Average Blood Glucose ([2]; Hour 5:00, night infusion): 5.8 mM | Average Blood Glucose ([2]; Hour 6:00, night infusion): 6.0 mM | Average Blood Glucose ([2]; Hour 7:00, night infusion): 6.2 mM | Average Blood Glucose [2, 8]: 7.5 mM | Average Blood Glucose ([2]; Hour 22:00, night infusion): 5.4 mM | Average Blood Glucose ([2]; Hour 23:00, night infusion): 4.1 mM | Metabolic control compared with insulin ([2]; night infusion): better than that achieved by insulin | Effect on blood glucose ([2]; subcutaneous infusion 1.2 pmol/kg/hr, ten hours during the night): nearly normalized blood glucose

O=C[C@H](O)[C@@H](O)[C@H](O)[C@H](O)CO [glucose]
Average loss of insulin sensitivity after the operation [3]: 32%

insulin: insulin (Actrapid®, Novo, Copenhagen) in Example 1; insulin comparator in Examples 2 and 3
C-peptide [4, 9]: .68 ± .09 | Cortisol [4, 9]: 171 ± 41 | Glucagon [4, 9]: 58 ± 7 | C-peptide ([4]; early op (10 to 40 min after initiation of surgery), insulin 0.8 mU/kg/min iv, n=7): .42 ±.06 | Cortisol [4, 10]: 234 ± 46 | Glucagon [4, 10]: 40 ± 3 | C-peptide levels during surgery compared to the control group ([4]; insulin group vs fasted control): lower | Serum insulin levels ([4]; insulin group, during surgery and the postop clamp, 0.8 mU/kg/min iv): around 60 μU/ml | Serum cortisol levels after surgery ([4]; insulin group, vs preop): decreased | Serum glucagon levels after surgery ([4]; insulin group, vs preop, p<0.05): decreased | C-peptide ([4]; late op (last 30 min of surgery), insulin 0.8 mU/kg/min iv, n=7): .58 ± .12 | Cortisol [4, 11]: 212 ± 44 | Glucagon [4, 11]: 35 ± 4 | C-peptide [4, 12]: .52 ± .11 | Cortisol [4, 12]: 172 ± 83 | Glucagon [4, 12]: 33 ± 4 | Cortisol [4, 13]: 266 ± 35 | Glucagon [4, 13]: 52 ± 3 | C-peptide ([4]; preop clamp, insulin 0.8 mU/kg/min iv, n=7, mean ± SEM): .45 ± .05 | Catabolic changes after surgery ([5]; elevated insulin levels before and maintained throughout the operation): completely abolished | Change in average GIR in the postop clamp compared to the preop clamp ([5]; insulin group n=7, p=0.2): +16±20% | Average GIR during the postop clamp compared to the control group [5, 14]: significantly higher | Substrate oxidation rates at the postop clamp as compared to the preop clamp ([6]; insulin group): no change | Resting energy expenditure (EE) during or after surgery, between groups ([6]; insulin group vs control): did not differ | Fat oxidation rates during surgery [6, 14]: significantly lower | Glucose oxidation rates during surgery [6, 14]: significantly higher | Average Blood Glucose [1, 7]: 6.1 mM | Average Blood Glucose ([1]; Hour 8:00, meal-time dosing): 7.0 mM | Average Blood Glucose ([1]; Hour 9:00, meal-time dosing): 9.1 mM | Average Blood Glucose ([1]; Hour 10:00, meal-time dosing): 9.9 mM | Average Blood Glucose ([1]; Hour 11:00, meal-time dosing): 8.2 mM | Average Blood Glucose ([1]; Hour 12:00, meal-time dosing): 6.5 mM | Average Blood Glucose ([1]; Hour 13:00, meal-time dosing): 9.1 mM | Average Blood Glucose ([1]; Hour 14:00, meal-time dosing): 8.1 mM | Average Blood Glucose ([1]; Hour 15:00, meal-time dosing): 7.0 mM | Average Blood Glucose ([1]; Hour 16:00, meal-time dosing): 7.2 mM | Average Blood Glucose ([1]; Hour 17:00, meal-time dosing): 6.5 mM | Average Blood Glucose ([1]; Hour 18:00, meal-time dosing): 7.3 mM | Average Blood Glucose ([1]; Hour 19:00, meal-time dosing): 6.1 mM | Average Blood Glucose ([1]; Hour 20:00, meal-time dosing): 6.0 mM | Average Blood Glucose ([1]; Hour 21:00, meal-time dosing): 6.4 mM | Average Blood Glucose ([2]; Hour 0:00, night infusion): 5.6 mM | Average Blood Glucose ([2]; Hour 1:00, night infusion): 5.1 mM | Average Blood Glucose ([2]; Hour 2:00, night infusion): 5.2 mM | Average Blood Glucose ([2]; Hour 3:00, night infusion): 5.4 mM | Average Blood Glucose ([2]; Hour 4:00, night infusion): 5.7 mM | Average Blood Glucose ([2]; Hour 5:00, night infusion): 6.0 mM | Average Blood Glucose ([2]; Hour 6:00, night infusion): 6.1 mM | Average Blood Glucose ([2]; Hour 7:00, night infusion): 6.1 mM | Average Blood Glucose [2, 8]: 6.9 mM | Average Blood Glucose ([2]; Hour 22:00, night infusion): 6.6 mM | Average Blood Glucose ([2]; Hour 23:00, night infusion): 5.9 mM
